This is an account of results in patent US4492698A, “Diphenylbutyl-1-acylpiperazines” (priority 1980, dated 1985).

Where a name gives a salt, the structure may show the parent alone. Read-outs that look alike come from different tables or passages of the source.

Experiment [1] has as its system male hooded Long-Evans rats. Description: spontaneous mouse-killing (muricide) by rats. Type of experiment: in vivo, rat (hooded Long-Evans). Conditions: for ED50: Rattus norvegicus, sc. From the text: For the purpose of detecting new psychotropic substances with antiaggressive properties, pharmacologist have used several different models. One model used, the mouse-killing (muricide) by rats (Vogel, J. R. in Industrial Pharmacology, Vol. 2, Antidepressants, Stuart, F. and Lal, H., Ed., Futura Publishing Company, 1975, p. 99), is based on an existing interspecies aggression (Karli, P., Behaviour 10, 81 (1956)). This form of aggressive behaviour which is considered to be of predatory nature, is physiologically and topographically different from other forms of aggression (O'Boyle, M., Psychol. Bull. 81, 261 (1974)). Mousekilling is a spontaneous behaviour in some rat strains e.g. male hooded Long-Evans rats.
Male hooded Long-Evans rats placed in individual cages were used. By testing a number of rats, a colony of rats was obtained that killed a mouse whenever introduced into the rats' cage, by biting the mouse through the cervical spinal cord.
Each rat was tested for mouse-killing behaviour (killing a mouse within 5 minutes) prior to each experiment, thus serving as its own positive control. For each dose level 6 positive rats were selected and the test substance was administered by subcutaneous injection. Doses were selected to form a dose-response curve and the […] (ED50, mg/kg) was calculated by means of linear regression. The rats were tested at 1, and 2 hours after being injected subcutaneously. [drawing 9]

The test system of experiment [2] is male NMRI mice. Put plainly: isolation-induced aggressive behaviour. Type of experiment: in vivo. The note with it: Mus musculus, sc, read-out: ED50 (dose inhibiting aggressive behaviour among 50 percent of the pairs). An excerpt:
Male mice subjected to prolonged isolation develop aggressive behaviour against each other when paired (Yen, C. Y. et al., Arch. Int. Pharmacodyn. 123, 179, (1959); Valzelli, L., Adv. Pharmacol. 5, 79 (1967)). […] The clinical correlation of this test indicates tranquillizing and anxiolytic activities as well as antiaggressive properties as such (Duncan, R. L. et al., J. Med. Chem. 13, 1 (1970)).
This type of aggression is interesting because it is known that this kind of emotional behaviour might be located in limbic structures in the brain (MacLean, P. D., Psychosom. Med. 11, 338 (1949)).
Every week male NMRI mice, weighing 20-22 g, were isolated in Makrolon cages for three weeks with diet and water ad libitum. A piece of cardboard was placed between the cages to prevent visual contact.
To test aggressiveness the mice were paired in a neutral area, a beaker (14 cm high and diameter 14 cm). A pair is considered aggressive if both the animals show clear signs of fighting within 5 min. This fighting is characterized by biting and vocalization. As soon as fighting is seen, the mice are separated and brought to their home cage. […] Animals showing no aggression are discarded. […] The test substance is administered s.c. (0.2-0.4 ml/20 g). The mice are paired 0.5 h after the injection for trials of 5 min. duration.
The ED50 -value (mg/kg) reported is the dose inhibiting aggressive behaviour among 50 percent of the pairs 0.5 hour after drug administration.

In the next experiment the test system is mice (NMRI). Description: writhing test (acetic acid), analgetic properties. Conditions: Mus musculus, sc, 20 min before acetic acid i.p.; female mice; read-out: ED50 (dose blocking the writhing behaviour in 50% of the animals). Type of experiment: in vivo. As for the experimental part: The writhing test is a frequently used test of analgetic properties (Witkin, L. B. et al., J. Pharmacol. Exp. Ther. 133, 400 (1961)). If acetic acid (0.5%, 15 ml/kg) is injected intraperitoneally in mice (NMRI) they will without exception develop a writhing behaviour characterized by stretching their hind legs. The drugs to be tested were administered subcutaneously to 6 female mice at each dose 20 min. before the injection of the acetic acid. After 10 min. The behaviour of the mice was studied in 5 min. The ED50 value is the dose blocking the writhing behaviour in 50% of the animals during the 5 min. study period.
For orientation: An intraperitoneal irritant provokes the stretching counted in writhing tests.

The subject of experiment [3] is male NMRI mice. Conditions: general statement on the test; cited from earlier work.
Setting [4] is: 1 hr after injection, read-out: ED50, spontaneous mouse-killing, 1 hr.
[5] abbreviates: read-out: ED50, spontaneous mouse-killing, s.c., 2 hr after injection.
[6] abbreviates: 0.5 hour after drug administration.

Turning to `CN(C)CCC=C1c2ccccc2CCc2ccccc21` [Amitriptyline], the ED50 in experiment [1] (setting [4]) was greater than 10 mg/kg; in experiment [1] (setting [5]), 6.4 mg/kg; in the experiment on male NMRI mice [2] (setting [6]) it was 5 mg/kg.

On to `CC(=O)N1CCN(CCCC(c2ccc(F)cc2)c2ccc(F)cc2)CC1` [B, 1-acetyl-4-[4,4-(di-fluorophenyl)butyl]piperazine], for which the values for the 50% effective dose (ED50) (in experiment [1] (setting [4]); in experiment [1] (setting [5]); in the experiment on male NMRI mice [2] (setting [6])) were greater than 10 mg/kg, greater than 10 mg/kg and 10 mg/kg, respectively. Further, the “pharmacological properties compared with compounds I” value in experiment [1] (versus compounds I of the invention, in the tests of the application) was “inferior to the compounds I of the present invention”.

Turning to `CN(C)CCCN1c2ccccc2Sc2ccc(Cl)cc21` [Chlorpromazine], the 50% effective dose (ED50) with male NMRI mice [2] (0.5 h) amounted to 1.4 mg/kg.

On to `CCC(=O)N1CCN(CCCC(c2ccc(F)cc2)c2ccc(F)cc2)CC1` [Compound 1, 1-Ethylcarbonyl-4-[4,4-(di-p-fluorophenyl)butyl]-piperazine hydrochloride], for which the ED50 in the experiment on mice (NMRI) is 0.5 mg/kg; in experiment [1] (setting [4]) it was 1 mg/kg; in experiment [1] (setting [5]), 1.8 mg/kg; in the experiment with male NMRI mice [2] (setting [6]), 2.8 mg/kg.

Take `CC(C)C(=O)N1CCN(CCCC(c2ccc(F)cc2)c2ccc(F)cc2)CC1` [Compound 2]: the 50% effective dose (ED50) in the experiment on mice (NMRI) came out at 1.1 mg/kg.

As to `O=C(C1CC1)N1CCN(CCCC(c2ccc(F)cc2)c2ccc(F)cc2)CC1` [Compound 3], the ED50 is 0.8 mg/kg in the experiment on mice (NMRI), 2.6 mg/kg in experiment [1] (setting [4]), 3.7 mg/kg in experiment [1] (setting [5]) and 1.4 mg/kg in the experiment on male NMRI mice [2] (setting [6]).

For `CCC(=O)N1CC(C)N(CCC(c2ccccc2)c2ccccc2)CC1C` (stereo not shown) [Compound A1], in the experiment on mice (NMRI), the ED50 is 4.2 mg/kg.

Consider `CN1C(=O)CN=C(c2ccccc2)c2cc(Cl)ccc21` [Diazepam], for which the “activity on isolation-induced aggressive behaviour” value in the experiment with male NMRI mice [3] is “active”.

One may read the ED50 as the dose at which the effect has come halfway, by size or by number of responders.
